These results are taken from the NIST ThermoML archive (doi:10.1016/j.jct.2004.12.003).

Each structure is given as a SMILES string. Numbers after ± are expanded uncertainties.

For data set [1] the following is noted: Liquid; for mass density: 293.15 K, 101.33 kPa.
Data set [2] in a line: refractive index (Na D-line) (dimensionless). The note with it: 293.15 K; 101.33 kPa; Liquid; Standard Abbe refractometry.

As for `CCC(=O)O` [propanoic acid], in data set [1], the mass density is 992.7 ± 0.5 kg/m3 and the Normal boiling temperature turned out to be 141.0 ± 0.08 °C. The refractive index in data set [2] was found to be 1.3811 ± 0.0011.
On to `COC(=O)c1ccccc1C(=O)OC` [dimethyl 1,2-benzenedicarboxylate], for which, in data set [1], the mass density is listed as 1191 ± 0.8 kg/m3 and the Normal boiling temperature was found to be 283.93 ± 0.08 °C. In addition, the refractive index in data set [2] stood at 1.514 ± 0.0011.
